Values quoted from earlier work, collected in patent US9511020B2, “Controlled release corticosteroid compositions and methods for the treatment of otic disorders” (priority 2008, dated 2016).

Tests used:
[1] = for Glucocorticoid potency: relative potency
[2] = relative potency

Question: With `C[C@]12CCC(=O)C=C1CC[C@@H]1[C@@H]2[C@@H](O)C[C@]2(C=O)[C@@H](C(=O)CO)CC[C@@H]12` [aldosterone] as the compound, how does the Glucocorticoid potency [1] read?
Answer: 0.07

Question: What about the Mineralocorticoid potency [2] of the same compound?
Answer: 1.0

Question: Which Glucocorticoid potency [1] does the source give for `C[C@]12CCC(=O)C=C1CC[C@@H]1[C@@H]2[C@@H](O)C[C@@]2(C)[C@H]1CC[C@]2(O)C(=O)CO` [cortisol] here?
Answer: 1

Question: And the Mineralocorticoid potency [2]?
Answer: 0.054

Question: What does the source list for `C[C@]12C=CC(=O)C=C1CC[C@@H]1[C@@H]2[C@@H](O)C[C@@]2(C)[C@H]1CC[C@]2(O)C(=O)CO` [prednisolone]?
Answer: Glucocorticoid potency [1]: 1.7; potency relative to endogenous cortisol ([1]; times the potency of endogenous cortisol): 4-5 times; Mineralocorticoid potency [2]: 0.013

Question: Which Glucocorticoid potency [1] does the source give for `C=C1C[C@H]2[C@@H]3CCC4=CC(=O)C=C[C@]4(C)[C@H]3[C@@H](O)C[C@]2(C)[C@@]1(O)C(=O)CO` [prednylidene] here?
Answer: 182

Question: What about the Mineralocorticoid potency [2] of the same compound?
Answer: 0.0011

Question: Which Glucocorticoid potency [1] does the source give for `C[C@]12C=CC(=O)C=C1CC[C@H]1[C@@H]3C[C@@H](O)[C@](O)(C(=O)CO)[C@@]3(C)C[C@H](O)[C@@]12F` [triamcinolone] here?
Answer: 0.35

Question: And the Mineralocorticoid potency [2]?
Answer: 0.0002
